Measured values from the NIST ThermoML archive (doi:10.1016/j.tca.2013.12.016).

Test: mn = molality of the nth substance listed, in mol/kg
Settings: 101 kPa, Liquid; for speed of sound: Linear variable-path acoustic interferometer; for mass density: Vibrating tube method

CCOC(C)=O [ethyl acetate] + CCO
Settings | mass density, 298.15 K [kg/m3] | mass density, 303.15 K [kg/m3] | mass density, 308.15 K [kg/m3] | mass density, 313.15 K [kg/m3] | speed of sound, 298.15 K [m/s] | speed of sound, 303.15 K [m/s] | speed of sound, 308.15 K [m/s] | speed of sound, 313.15 K [m/s]
m2 = 0.0124 | 894.9 | 888.4 | 882.9 | 877.2 | 1152 | 1135 | 1116 | 1093
m2 = 0.0357 | 894.7 | 888.2 | 882.7 | 877 | 1151 | 1134 | 1115 | 1091
m2 = 0.0713 | 894.4 | 887.9 | 882.4 | 876.4 | 1150 | 1133 | 1114 | 1090
m2 = 0.1025 | 894.2 | 887.7 | 882.2 | 876.5 | 1149 | 1130 | 1110 | 1089
m2 = 0.2087 | 893.5 | 887 | 881.5 | 875.8 | 1147 | 1128 | 1098 | 1077
m2 = 0.3504 | 892.6 | 886.1 | 880.6 | 874.9 | 1143 | 1123 | 1092 | 1069
m2 = 0.5065 | 891.7 | 885.3 | 879.8 | 874 | 1140 | 1119 | 1091 | 1067
m2 = 0.6771 | 890.7 | 884.4 | 878.9 | 873.2 | 1139 | 1116 | 1086 | 1062
m2 = 0.9772 | 889.1 | 883 | 877.4 | 871.8 | 1136 | 1113 | 1083 | 1059
m2 = 1.701 | 885.5 | 879.4 | 874 | 868.3 | 1131 | 1110 | 1080 | 1056
m2 = 2.712 | 880.6 | 874.7 | 869.3 | 863.7 | 1128 | 1107 | 1074 | 1053
m2 = 3.001 | 879.4 | 873.5 | 868.1 | 862.5 | 1122 | 1101 | 1068 | 1044

COC(C)=O [methyl ethanoate] + CCO
Settings | mass density, 298.15 K [kg/m3] | mass density, 303.15 K [kg/m3] | mass density, 308.15 K [kg/m3] | mass density, 313.15 K [kg/m3] | speed of sound, 298.15 K [m/s] | speed of sound, 303.15 K [m/s] | speed of sound, 308.15 K [m/s] | speed of sound, 313.15 K [m/s]
m2 = 0.0152 | 927 | 920.5 | 914.2 | 908 | 1153 | 1134 | 1113 | 1089
m2 = 0.0357 | 926.8 | 920.3 | 914 | 907.8 | 1152 | 1131 | 1110 | 1086
m2 = 0.065 | 926.6 | 920.1 | 913.8 | 907.6 | 1150 | 1130 | 1108 | 1084
m2 = 0.102 | 926.3 | 919.8 | 913.5 | 907.3 | 1149 | 1128 | 1107 | 1083
m2 = 0.2098 | 925.5 | 919 | 912.7 | 906.5 | 1146 | 1125 | 1104 | 1080
m2 = 0.3417 | 924.5 | 918 | 911.7 | 905.5 | 1143 | 1122 | 1101 | 1077
m2 = 0.5068 | 923.1 | 916.7 | 910.4 | 904.1 | 1140 | 1119 | 1098 | 1074
m2 = 0.6769 | 921.8 | 915.4 | 909.1 | 902.8 | 1137 | 1116 | 1095 | 1071
m2 = 0.9775 | 919.5 | 913.1 | 906.9 | 900.6 | 1134 | 1113 | 1092 | 1068
m2 = 1.702 | 914.4 | 908 | 901.9 | 895.5 | 1131 | 1110 | 1089 | 1065
m2 = 2.712 | 907.8 | 901.5 | 895.4 | 889 | 1128 | 1107 | 1086 | 1062
m2 = 3 | 905.8 | 899.7 | 893.5 | 887.1 | 1122 | 1104 | 1080 | 1056

CCOC(C)=O [ethyl acetate] + CO
Settings | mass density, 298.15 K [kg/m3] | mass density, 303.15 K [kg/m3] | mass density, 308.15 K [kg/m3] | mass density, 313.15 K [kg/m3] | speed of sound, 298.15 K [m/s] | speed of sound, 303.15 K [m/s] | speed of sound, 308.15 K [m/s] | speed of sound, 313.15 K [m/s]
m2 = 0.0111 | 894.5 | 888.9 | 883 | 877.1 | 1110 | 1086 | 1059 | 1038
m2 = 0.0223 | 894.6 | 888.8 | 882.9 | 877 | 1113 | 1089 | 1062 | 1041
m2 = 0.0495 | 894.7 | 888.7 | 882.8 | 876.9 | 1116 | 1092 | 1065 | 1044
m2 = 0.1474 | 894.9 | 888.6 | 882.7 | 876.8 | 1119 | 1095 | 1068 | 1047
m2 = 0.2878 | 894.7 | 888.5 | 882.4 | 876.4 | 1122 | 1098 | 1071 | 1050
m2 = 0.3556 | 894.4 | 888.3 | 882.1 | 876.2 | 1125 | 1101 | 1074 | 1053
m2 = 0.4905 | 893.6 | 887.7 | 881.6 | 875.8 | 1128 | 1104 | 1077 | 1056
m2 = 0.7268 | 892.2 | 886.4 | 880.6 | 874.8 | 1131 | 1107 | 1080 | 1059
m2 = 0.974 | 890.5 | 884.9 | 879.1 | 873.8 | 1134 | 1110 | 1089 | 1062
m2 = 1.409 | 888.2 | 882.6 | 877 | 871.6 | 1137 | 1113 | 1092 | 1065
m2 = 2.445 | 886.1 | 879.8 | 873.8 | 868.4 | 1140 | 1116 | 1095 | 1068
m2 = 3.001 | 886 | 879.1 | 873.1 | 867.9 | 1143 | 1122 | 1098 | 1071
